Calls of active or inactive are those of the source. The rule behind the calls is not given here.

The test system of the first test is Oryctolagus cuniculus. The experiment in a line: Reduction in maximum Intra ocular pressure in the rabbit model of ocular hypertension, when treated with a minimum effective topical dose of 0.05%.
Conditions: not given
With `NS(=O)(=O)c1cc2ccc(O)cc2s1`, the Activity is recorded as -5.6 mmHg.

For the compound `CC(C)(C)C(=O)Oc1ccc2cc(S(N)(=O)=O)sc2c1`, the Activity is -4.7 mmHg.

Another test has as its system Oryctolagus cuniculus. The experiment in a line: Reduction in maximum Intra ocular pressure in the rabbit model of ocular hypertension, when treated with a minimum effective topical dose of 5%.
Conditions: not given
In the case of `CC(=O)/N=c1/sc(S(N)(=O)=O)nn1C` [METHAZOLAMIDE], the Activity is -5.1 mmHg.

The subject of another test is Oryctolagus cuniculus. Kind of test: Reduction in maximum Intra ocular pressure in the rabbit model of ocular hypertension, when treated with a minimum effective oral dose of 1.25 mg/kg. It counts as functional, Eye.
Conditions: not given
With `CC(=O)Nc1nnc(S(N)(=O)=O)s1` [ACETAZOLAMIDE], the Activity is -6.3 mmHg. On the same count and under the same terms, as for `NS(=O)(=O)c1cc2ccc(O)cc2s1`, the figure is -7.7 mmHg.

The test system of the next test is Oryctolagus cuniculus. The experiment in a line: Reduction in maximum Intra ocular pressure in the rabbit model of ocular hypertension, when treated with a minimum effective topical dose of 0.10%.
Conditions: not given
Consider `CC(=O)Oc1ccc2cc(S(N)(=O)=O)sc2c1`, for which the Activity was -5.3 mmHg.

The next test addresses T1, Carbonic anhydrase 2 (Homo sapiens, UniProt P00918). Kind of test: Concentration of inhibitor required to reduce the rate of carbonic anhydrase II catalyzed CO2 hydration by 50%. To be noted: read-out: I50.
Take `CC(C)(C)C(=O)Oc1ccc2cc(S(N)(=O)=O)sc2c1`: the IC50 is 2.6 nM. Still for that read-out and setting: as for `CC(=O)Oc1ccc2cc(S(N)(=O)=O)sc2c1`, the figure is 4 nM.

The next test has as its target T1, Carbonic anhydrase 2.
Assay: not given
Conditions: not given
Regarding `CC(=O)c1ccc2cc(S(N)(=O)=O)sc2c1`, the IC50 was 6 nM. Same read-out and setting: as for `COc1cccc2sc(S(N)(=O)=O)cc12`, the figure is 12 nM; as for `CC(C)(C)NCC(O)COc1ccc2cc(S(N)(=O)=O)sc2c1` (configuration not stated), 18 nM. In turn, `COCc1ccc2sc(S(N)(=O)=O)cc2c1` gave an IC50 of 9 nM. On the same count and under the same terms, as for `NS(=O)(=O)c1cc2c(O)cccc2s1`, the figure is 12 nM; as for `CN(C)Cc1ccc2sc(S(N)(=O)=O)cc2c1`, 12 nM. Still for that read-out and setting: as for `CN(C)C(=O)Oc1ccc2sc(S(N)(=O)=O)cc2c1`, the figure is 5 nM; as for `NS(=O)(=O)c1cc2cc(CO)ccc2s1`, 9 nM.

In the case of `CC(C)(C)N1CC(COc2ccc3cc(S(N)(=O)=O)sc3c2)OC1=O` (configuration not stated), the IC50 turned out to be 8 nM. Still for that read-out and setting: with `NS(=O)(=O)c1cc2cccc(O)c2s1` the figure was 11 nM. Same read-out and setting: with `CN(C)CCSCc1ccc2sc(S(N)(=O)=O)cc2c1` the figure was 15 nM; with `NS(=O)(=O)c1cc2ccccc2s1`, 5.2 nM.

For the compound `NS(=O)(=O)c1cc2ccc(OP(=O)(O)O)cc2s1`, the IC50 is 100 nM. The same measure, in the same setting: with `COc1ccc2cc(S(N)(=O)=O)sc2c1` the figure was 8.8 nM. Same read-out and setting: with `NS(=O)(=O)c1cc2cc(CN3CCOCC3)ccc2s1` the figure was 15 nM; with `CC(=O)OCc1ccc2sc(S(N)(=O)=O)cc2c1`, 10 nM; with `NS(=O)(=O)c1cc2ccc(OCC(=O)O)cc2s1`, 14 nM. Still for that read-out and setting: with `COc1ccc2sc(S(N)(=O)=O)cc2c1` the figure was 23 nM; with `COc1cccc2cc(S(N)(=O)=O)sc12`, 50 nM; with `NS(=O)(=O)c1cc2cc(O)ccc2s1`, 6.2 nM.

On to `Nc1ccc2cc(S(N)(=O)=O)sc2c1`, for which the IC50 was determined as 10 nM. `NS(=O)(=O)c1cc2ccc(OS(=O)(=O)O)cc2s1`: the IC50 was determined as 6.8 nM.

Consider `CC(=O)Nc1ccc2cc(S(N)(=O)=O)sc2c1`, for which the IC50 is 4.8 nM. The same measure, in the same setting: with `CC(C)COC(=O)Oc1ccc2cc(S(N)(=O)=O)sc2c1` the figure was 5.6 nM.

The test system of the next test is Oryctolagus cuniculus. The experiment in a line: Reduction in maximum Intra ocular pressure in the rabbit model of ocular hypertension, when treated with a minimum effective topical dose of 10%; NE means No Effect. The following applies: Eye.
For the compound `CCOc1ccc2nc(S(N)(=O)=O)sc2c1`, the outcome was inactive.

Another test relates to Oryctolagus cuniculus. The experiment in a line: Reduction in maximum Intra ocular pressure in the rabbit model of ocular hypertension, when treated with a minimum effective topical dose of 10%.
Conditions: not given
Regarding `NS(=O)(=O)c1cc(Cl)c(Cl)c(S(N)(=O)=O)c1` [DICHLORPHENAMIDE], the Activity is reported as -4.7 mmHg.

For a further test, the system named is Oryctolagus cuniculus. The experiment in a line: Reduction in maximum Intra ocular pressure in the rabbit model of ocular hypertension, when treated with a minimum effective topical dose of 0.25%.
Conditions: not given
In the case of `CC(C)(C)C(=O)Oc1ccc2nc(S(N)(=O)=O)sc2c1`, the Activity is -7.8 mmHg.

Another test deals with Oryctolagus cuniculus. The experiment in a line: Reduction in maximum Intra ocular pressure in the rabbit model of ocular hypertension, when treated with a minimum effective oral dose of 10 mg/Kg; NE is No Effect. It counts as functional, organism-based. The following applies: Eye.
As to `CC(=O)Nc1nnc(S(N)(=O)=O)s1` [ACETAZOLAMIDE], the outcome was inactive.

Another test concerns Oryctolagus cuniculus. Kind of test: Reduction in maximum Intra ocular pressure in the rabbit model of ocular hypertension, when treated with a minimum effective topical dose of 0.10%.
Conditions: not given
This is another data set of the same source.
Consider `NS(=O)(=O)c1cc2ccc(O)cc2s1`, for which the Activity was -6.6 mmHg.
